According to US6683095B2, “CDK inhibitors having 3-hydroxychromen-4-one structure” (LG Life Sciences Ltd., priority 2000, dated 2004):

Assays:
[1] = target: T1, CDK2/cyclin A (Homo sapiens, UniProt P24941); experiment: Inhibitory activity against CDK2 (CDK2/cyclin A kinase assay, GST-Rb substrate, 32P-ATP); assay type: biochemical; settings: 100 μM ATP, 30° C., 30 minutes
T1 construct: His; made in house; host or cells: insect cell (baculovirus co-infection)
Procedure: The inhibitory activity against CDK2 was measured by referring to Kitagawa, M. et al., Oncogene 9; 2549, 1994 and that against CDK4 was measured by referring to Carlson, B. A. et al., Cancer Research 56; 2473, 1996.
The part of amino acid positions 780 to 928 of C-terminus of human Rb protein was isolated, N-terminus thereof was labelled with GST protein, large amount thereof was expressed in bacteria and purified to be used as the substrate for the enzyme.
(§1) The activities of CDK2/cyclin A and CDK4/cyclin D1 were determined as follows. About 100 ng of enzyme was reacted in a total 100 μl of 20 mM Tris(pH 8.0), 100 mM NaCl, 10 mM MgCl2 buffer solution containing 20 μg of GST-Rb protein, 100 μM of ATP and 5 μCi of p^32-γ-ATP at 30° C. for 30 minutes. Then, EDTA was added to a concentration of 20 mM to stop the enzyme reaction. Subsequently, 30 μl of 50% glutathione bead (purchased from Pharmacia) was added to attach GST-Rb to the bead, which was washed three times with 20 mM Tris(pH 8.0), 100 mM NaCl, 10 mM EDTA solution, and then scintillation counting was carried out. To analyze the inhibitory activity of the compound, the inhibitor having a proper concentration was added to the enzyme reaction solution, and then the enzyme activity was measured according to the above method.
The inhibitory activity against CDK2 and CDK4 of the compound of formula (1) according to the present invention was represented as IC50 value (see the following Table 1).

[2] = target: T2, CDK4/cyclin D1 (Homo sapiens, UniProt P11802); experiment: Inhibitory activity against CDK4 (CDK4/cyclin D1 kinase assay, GST-Rb substrate, 32P-ATP); assay type: biochemical; settings: 100 μM ATP, 30° C., 30 minutes
T2 construct: GST; made in house; host or cells: insect cell
Procedure: as §1

[3] = Acute oral toxicity test; settings: mouse, in vivo; oral administration, ICR male, observed 7 days, Litchfield-Wilcoxon method
Procedure: To determine the acute oral toxicities of the test compounds, solutions containing a compound in different concentrations from each other were administered orally to ICR male with a dose of 10 ml/kg body weight. After oral administration, lethality and symptoms for 7 days were observed, and LD50 (mg/kg) was calculated according to Litchfield-Wilcoxon method.

T2 sequence (P11802 whole entry): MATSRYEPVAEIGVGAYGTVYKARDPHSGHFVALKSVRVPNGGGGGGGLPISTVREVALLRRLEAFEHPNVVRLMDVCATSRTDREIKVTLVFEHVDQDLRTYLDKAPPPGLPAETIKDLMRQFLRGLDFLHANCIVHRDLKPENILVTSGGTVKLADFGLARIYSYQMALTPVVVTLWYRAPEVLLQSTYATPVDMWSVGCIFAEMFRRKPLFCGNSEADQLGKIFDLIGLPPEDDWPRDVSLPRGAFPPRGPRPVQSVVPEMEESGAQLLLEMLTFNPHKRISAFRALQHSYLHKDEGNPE
T2 sequence (P24385 whole entry partner): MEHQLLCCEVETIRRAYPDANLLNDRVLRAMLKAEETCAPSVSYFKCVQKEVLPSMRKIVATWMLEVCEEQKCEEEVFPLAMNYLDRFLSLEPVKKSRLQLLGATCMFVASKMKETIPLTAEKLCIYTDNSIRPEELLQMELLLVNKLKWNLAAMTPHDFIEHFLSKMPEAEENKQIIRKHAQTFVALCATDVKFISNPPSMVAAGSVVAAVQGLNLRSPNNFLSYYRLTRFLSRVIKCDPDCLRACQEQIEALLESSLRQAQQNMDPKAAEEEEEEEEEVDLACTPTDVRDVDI

Row | IC50 [1] [nM] | IC50 [2] [nM] | Compound | LD50 at 7 days [3] [mg/kg]
1 | 600 | 900 | CN(CCO)c1cc(N2CCCS2(=O)=O)c2oc(-c3ccc(O)cc3)c(O)c(=O)c2c1 [Compound 33, 2-{3-hydroxy-6-[(2-hydroxyethyl)(methyl)amino]-2-(4-hydroxyphenyl)-4-oxo-4H-chromen-8-yl}-1λ^6-isothiazolidin-1,1-dione] | 
2 | 1300 | 1800 | CC(=O)Nc1cc(N2CCCS2(=O)=O)c2oc(-c3ccc(O)c(Cl)c3)c(O)c(=O)c2c1 [Compound 34, N-[2-(3-chloro-4-hydroxyphenyl)-8-(1,1dioxo-1λ^6-isothiazolidin-2-yl)-3-hydroxy-4-oxo-4H-chromen-6-yl]acetamide] | 
3 | 70 | 180 | Nc1cc(N2CCCS2(=O)=O)c2oc(-c3ccc(O)c(Cl)c3)c(O)c(=O)c2c1 [Compound 35, 2-[6-amino-2-(3-chloro-4-hydroxyphenyl)-3-hydroxy-4-oxo-4H-chromen-8-yl]-1λ^6-isothiazolidin-1,1-dione] | 
4 | 130 | 280 | Cc1cc(-c2ccncc2)c2oc(-c3ccc(O)c(Cl)c3)c(O)c(=O)c2c1 [Compound 39, 2-(3-chloro-4-hydroxyphenyl)-3-hydroxy-6-methyl-8-(4-pyridinyl)-4H-chromen-4-one] | 
5 | 560 | 150 | Cc1cc(C2CCN(C)CC2)c2oc(-c3ccc(O)cc3)c(O)c(=O)c2c1 [Compound 41, 2-(4-hydroxyphenyl)-3-hydroxy-6-methyl-8-(1-methyl-4-piperidinyl)-4H-chromen-4-one] | 
6 | 178 | 650 | Cc1cc(C2CCN(C)CC2)c2oc(-c3ccc(O)c(C)c3)c(O)c(=O)c2c1 [Compound 42, 3-hydroxy-2-(4-hydroxy-3-methylphenyl)-6-methyl-8-(1-methyl-4-piperidinyl)-4H-chromen-4-one] | 
7 | 6300 | < 1000 | Cc1cc(C2CCN(C)CC2)c2oc(-c3ccc(O)c(C(F)(F)F)c3)c(O)c(=O)c2c1 [Compound 43, 3-hydroxy-2-(4-hydroxy-3-trifluoromethylphenyl)-6-methyl-8-(1-methyl-4-piperidinyl)-4H-chromen-4-one] | 
8 | < 1000 | < 1000 | Cc1cc(C2CCN(CCO)CC2)c2oc(-c3ccc(O)c(Cl)c3)c(O)c(=O)c2c1 [Compound 44, 2-(3-chloro-4-hydroxyphenyl)-3-hydroxy-8-[1-(2-hydroxyethyl)-4-piperidinyl]-6-methyl-4H-chromen-4-one] | 
9 | < 1000 | < 1000 | Cc1cc(C2CCN(CCN)CC2)c2oc(-c3ccc(O)c(Cl)c3)c(O)c(=O)c2c1 [Compound 45, 8-[1-(2-aminoethyl)-4-piperidinyl]-2-(3-chloro-4-hydroxyphenyl)-3-hydroxy-6-methyl-4H-chromen-4-one] | 

Second part, the compound before the results:

Row | Compound | IC50 [1] [nM] | IC50 [2] [nM] | LD50 at 7 days [3] [mg/kg]
10 | Cc1cc(N2CCCS2(=O)=O)c2oc(-c3ccc(O)cc3)c(O)c(=O)c2c1 [Compound 15, 2-[3-hydroxy-2-(4-hydroxyphenyl)-6-methyl-4-oxo-4H-chromen-8-yl]-1λ^6-isothiazolidin-1,1-dione] | 250 | 550 | > 3000
11 | Cc1cc(N2CCCS2(=O)=O)c2oc(-c3ccc(O)c(Cl)c3)c(O)c(=O)c2c1 [Compound 17, 2-[2-(3-chloro-4-hydroxyphenyl)-3-hydroxy-6-methyl-4-oxo-4H-chromen-8-yl]-1λ^6-isothiazolidin-1,1-dione] | 185 | 195 | > 3000
12 | O=c1c(O)c(-c2ccc(O)cc2)oc2c(N3CCCS3(=O)=O)cc(NC3CCCCC3)cc12 [Compound 30, 2-[6-(cyclohexylamino)-3-hydroxy-2-(4-hydroxyphenyl)-4-oxo-4H-chromen-8-yl]-1λ^6-isothiazolidin-1,1-dione] | 5600 | 1600 | 
13 | O=c1c(O)c(-c2ccc(O)cc2)oc2c(N3CCCS3(=O)=O)cc(Nc3ccccc3)cc12 [Compound 31, 2-[6-anilino-3-hydroxy-2-(4-hydroxyphenyl)-4-oxo-4H-chromen-8-yl]-1λ^6-isothiazolidin-1,1-dione] | 1400 | 3000 | 
14 | CNc1cc(N2CCCS2(=O)=O)c2oc(-c3ccc(O)cc3)c(O)c(=O)c2c1 [Compound 32, 2-[3-hydroxy-2-(4-hydroxyphenyl)-6-(methylamino)-4-oxo-4H-chromen-8-yl]-1λ^6-isothiazolidin-1,1-dione] | 224 | 540 | 
15 | CN(C)c1cc(N2CCCS2(=O)=O)c2oc(-c3ccc(O)c(Cl)c3)c(O)c(=O)c2c1 [Compound 36, 2-[2-(3-chloro-4-hydroxyphenyl)-6-(dimethylamino)-3-hydroxy-4-oxo-4H-chromen-8-yl]-1λ^6-isothiazolidin-1,1-dione] | 500 | 600 | > 3000
16 | CNc1cc(N2CCCS2(=O)=O)c2oc(-c3ccc(O)c(Cl)c3)c(O)c(=O)c2c1 [Compound 37, 2-[2-(3-chloro-4-hydroxyphenyl)-6-(methylamino)-3-hydroxy-4-oxo-4H-chromen-8-yl]-1λ^6-isothiazolidin-1,1-dione] | 200 | 180 | > 3000
17 | Cc1cc(C2CCN(C)CC2)c2oc(-c3ccc(O)c(Cl)c3)c(O)c(=O)c2c1 [Compound 38, 2-(3-chloro-4-hydroxyphenyl)-3-hydroxy-6-methyl-8-(1-methyl-4-piperidinyl)-4H-chromen-4-one] | 500 | 120 | > 3000
18 | Cc1cc(-c2cc[n+](C)cc2)c2oc(-c3ccc(O)c(Cl)c3)c(O)c(=O)c2c1 [Compound 40, 4-[2-(3-chloro-4-hydroxyphenyl)-3-hydroxy-6-methyl-4-oxo-4H-chromen-8-yl]-1-methylpyridinium bromide] | 700 | 310 | > 3000
